The subject of data set [1] is A. castellanii genotype T4 (ATCC 50492) trophozoites. Nature of the data set: Amoebicidal assay (Trypan blue exclusion, haemocytometer counting). In kind it is cell-based, Acanthamoeba castellanii. Particulars: for Amoebicidal Activity Inhibition % ± SEM: 50 µM concentration, Supplementary Table S1; for IC50: tested at 12.5, 25, 50 and 100 µM against A. castellanii; for amoebicidal effects / antiamoebic activity against A. castellanii: 50 µM, 24 h, 30 °C. As for the experimental part: A. castellanii genotype T4 (ATCC 50492) trophozoites were used in this study. The amoebae were axenically cultivated at 30 °C in T-75 cm^3 culture flask using a proteose-peptone yeast extract-glucose (PYG) broth culture. Upon confluency, amoeba cultured flask was placed on ice for 10 min followed by gently tapping to dislodge the adhered trophozoites. Next, culture was centrifuged at 3000× g for 5 min. The supernatant was discarded and the pellet was re-suspended in 1 mL of Roswell Park Memorial Institute (RPMI) media. Finally, amoebae were counted via haemocytometer microscopically and the desired initial inoculum (5 × 10^5) was adjusted and used in different assays. Different molecules were tested against A. castellanii to examine their antiamoebic effects as previously reported. Briefly, A. castellanii (5 × 10^5) were incubated with 50 µM of the tested compounds for 24 h at 30 °C with a final assays volume of 0.5 mL in a 24-well plate. For controls, amoebae cultured in RPMI alone and with 0.25% sodium dodecyl sulfate (SDS) was taken as negative and positive control, respectively. Finally, each well was stained with Trypan blue (0.1%) and viable amoebae trophozoites were enumerated by haemocytometer. In some trails, these compounds were tested at different concentrations (12.5, 25, 50 and 100 µM) to determine their 50% inhibitory concentration (IC50) against A. castellanii.

The subject of another data set is human cell lines. The data set is described as follows: MTT assay (EC50/CC50 and MNTD90). It is filed as cell-based. The settings on record: for CC50: 50% effective/cytotoxic concentration (CC50), tested at 12.5–100 µM; for EC90: Maximum Non-Toxic Dose, read-out: MNTD/EC90. For orientation: Formazan colour is commonly taken as a measure of viable cells.
For a further data set, the system named is HeLa cells. Nature of the data set: In vitro cytotoxicity, lactate dehydrogenase (LDH) assay. In kind it is cell-based, human. Particulars: 50 µM, 24 h, LDH release. The protocol: HeLa cells were obtained from the American Type Culture Collection (ATCC CCL-2) and grown at 37 °C with 5% CO2 and 95% humidity in RPMI supplemented with 10% fetal bovine serum (FBS), 1% minimum essential medium amino acids, 1% Penicillin-Streptomycin (Pen-Strep) and 1% L-glutamine. The media was removed aseptically, and cells were detached enzymatically using 2 mL of trypsin EDTA. Next, culture containing dislodged cells was centrifuged at 2500× g for 5 min. The cell pellet was resuspended in the above-mentioned media, subsequently added into 96-well plates and utilized in different assays. In vitro cytotoxic effects of the tested molecules were determined using Lactate dehydrogenase (LDH) assays against human cells. In brief, 50 µM concentration of the tested compounds were incubated with HeLa cells monolayer for 24 h at 37 °C with 5% CO2 in humidified conditions. After this incubation, 0.1% triton X-100 was added to the positive control wells and incubated the plate for 45 min at 37 °C. Then, an equal volume of cells supernatant containing liberated LDH enzyme was mixed with an equal volume of LDH kit reagents (Cytotoxicity Detection kit; Roche Diagnostics, Indianapolis, IN, USA). The positive and negative controls were cell monolayers treated with 0.1 percent Triton X-100 and in RPMI alone. The plate was subjected to multi-plate reader and absorbance was recorded at 490 nm. The percent cytotoxicity was calculated using given formula; % Cell cytotoxicity = sample value − negative control value/positive control value − negative control value × 100.
(LDH in the medium is a marker of cell lysis.)

In data set [2] the test system is A. castellanii binding to HeLa cells. The data set is described as follows: Adhesion assay: amoebae binding to human cells. It is filed as cell-based, Acanthamoeba castellanii. Particulars: amoebae pre-treated with 50 µM for 2 h; 60 min on HeLa monolayer. As for the experimental part: Adhesion assays were performed to determine how the tested molecules affect the binding capability of amoebae to human cells. Firstly, A. castellanii (5 ×10^5) trophozoites were treated with 50 µM of the compounds in serum-free RPMI medium at 30 °C for 2 h. Next, pre-treated amoebae were centrifuged at 3000× g for 5 min and re-suspended the amoeba in 200 µL of RPMI medium. The total assay volume including pre-treated amoeba was transferred to a confluent HeLa cell monolayer cultured in 96-well plates. For control, amoebae trophozoites alone were added to HeLa cell monolayer. The plates were incubated for 60 min at 37 °C with 5% CO2 and 95% humidity and amoebae (unbound) were then counted by haemocytometer. Percent bound amoebae was calculated using the following formula: % amoebae (bound) = 100 − amoebae (unbound)(1)

Data set [3] concerns A. castellanii trophozoites. Nature of the data set: Encystation assay. In kind it is cell-based, Acanthamoeba castellanii. The settings on record: 50 µM, 16% glucose, 30 °C, 48–72 h; negative control 100%. The protocol:
Encystation assays were performed to determine the effects of the tested compounds to prevent the differentiation of A. castellanii trophozoites into the cyst form and 50 µM of the tested compounds were utilized. Briefly, A. castellanii (1 × 10^6) trophozoites were incubated with these compounds with 16% filter-sterilized glucose (as encystation medium) at 30 °C 48–72 h. A. castellanii cultured alone in 16% glucose was taken as negative control. After this incubation, 0.1% sodium dodecyl sulfate (SDS) was added to each well and agitated the plate for 20 min. The SDS resistant cysts were enumerated using a haemocytometer and data was recoded.

As to `O=C(NCCNc1nccc(-c2c(-c3ccc(F)cc3)nc3sccn23)n1)c1cccc(C(F)(F)F)c1` [Compound 1h], the “Amoebicidal Activity Inhibition % ± SEM” value in data set [1] is on record as 38.16% ± 3.74%.
For the compound `COc1cccc(-c2nc3sccn3c2-c2ccnc(NCCNC(=O)c3cc(C(F)(F)F)cc(C(F)(F)F)c3)n2)c1` [Compound 1r], in data set [1], the “Amoebicidal Activity Inhibition % ± SEM” value was 44.91% ± 8.42% and it took 64.7 µM to reach half-maximal inhibition (IC50). In the data set with human cell lines, the 50% cytotoxic concentration (CC50) worked out at 183 µM and the EC90 came out at 33.9 µM.
Regarding `O=C(NCCNc1nccc(-c2c(-c3cccc(O)c3)nc3sccn23)n1)Nc1cc(C(F)(F)F)cc(C(F)(F)F)c1` [Compound 1w], in data set [1], the “Amoebicidal Activity Inhibition % ± SEM” value is 50.25% ± 4.67% and the 50% inhibitory concentration (IC50) was found to be 46.3 µM. In the data set with human cell lines, the CC50 stood at 304 µM and the EC90 came to 36.1 µM.
`COc1cccc(NC(=O)NCCNc2nccc(-c3c(-c4ccc(F)cc4)nc4sccn34)n2)c1` [Compound 1a]: in data set [1], the “Amoebicidal Activity Inhibition % ± SEM” value is on record as 7.70% ± 3.57%. Further, the “cytotoxicity against HeLa cells” value in the data set on HeLa cells was 35%.
On to `COc1ccc(C(=O)NCCNc2nccc(-c3c(-c4ccc(F)cc4)nc4sccn34)n2)cc1OC` [Compound 1e], for which, in data set [1], the “Amoebicidal Activity Inhibition % ± SEM” value is recorded as 44.50% ± 1.79%. In data set [2], the “inhibition of amoebae binding to human cells” value (from here on “inhibition of amoebae binding”) stood at 40%.
As to `Cc1cn(-c2cc(C(=O)NCCNc3nccc(-c4c(-c5ccc(F)cc5)nc5sccn45)n3)cc(C(F)(F)F)c2)cn1` [Compound 1j], the “Amoebicidal Activity Inhibition % ± SEM” value in data set [1] is listed as 42.34% ± 3.81%.
In the case of `O=C(NCCNc1nccc(-c2c(-c3cccc(O)c3)nc3sccn23)n1)c1cc(N2CCOCC2)cc(C(F)(F)F)c1` [Compound 1zc], in data set [1], the “Amoebicidal Activity Inhibition % ± SEM” value was 14.79% ± 3.19% and the “amoebicidal effects / antiamoebic activity against A. castellanii” value is reported as “did not show promising antiamoebic activity”.
For `COc1cccc(-c2nc3sccn3c2-c2ccnc(NCCNC(=O)Nc3cc(C(F)(F)F)cc(C(F)(F)F)c3)n2)c1` [Compound 1n], in data set [1], the “Amoebicidal Activity Inhibition % ± SEM” value is on record as 51.05% ± 2.36% and half-maximal inhibition (IC50) required 47.5 µM. In addition, in the data set on human cell lines, half-maximal cytotoxicity (CC50) was put at 648 µM and the EC90 is 16.4 µM.
With `O=C(NCCNc1nccc(-c2c(-c3cccc(O)c3)nc3sccn23)n1)Nc1ccccc1` [Compound 1u], in data set [1], the “Amoebicidal Activity Inhibition % ± SEM” value is listed as 12.66% ± 5.04% and the “amoebicidal effects / antiamoebic activity against A. castellanii” value was “did not show promising antiamoebic activity”.
Turning to `COc1cccc(-c2nc3sccn3c2-c2ccnc(NCCNC(=O)c3ccccc3)n2)c1` [Compound 1o], in data set [1], the “Amoebicidal Activity Inhibition % ± SEM” value is reported as 11.78% ± 11.34% and the “amoebicidal effects / antiamoebic activity against A. castellanii” value is “did not show promising antiamoebic activity”.
The corresponding values for `O=C(NCCNc1nccc(-c2c(-c3ccc(F)cc3)nc3sccn23)n1)c1cc(N2CCOCC2)cc(C(F)(F)F)c1` [Compound 1k] are 16.58% ± 6.08% and “did not show promising antiamoebic activity”.
Take `O=C(NCCNc1nccc(-c2c(-c3ccc(F)cc3)nc3sccn23)n1)c1ccc2c(c1)OCCO2` [Compound 1f]: the “Amoebicidal Activity Inhibition % ± SEM” value in data set [1] was 40.50% ± 4.84%.
Turning to `O=C(NCCNc1nccc(-c2c(-c3cccc(O)c3)nc3sccn23)n1)c1ccccc1O` [Compound 1y], in data set [1], the “Amoebicidal Activity Inhibition % ± SEM” value is recorded as 12.50% ± 4.68% and the “amoebicidal effects / antiamoebic activity against A. castellanii” value is recorded as “did not show promising antiamoebic activity”.
The corresponding values for `COc1cccc(-c2nc3sccn3c2-c2ccnc(NCCNC(=O)c3cc(N4CCOCC4)cc(C(F)(F)F)c3)n2)c1` [Compound 1t] are 17.46% ± 3.75% and “did not show promising antiamoebic activity”.
Regarding `O=C(NCCNc1nccc(-c2c(-c3ccc(F)cc3)nc3sccn23)n1)c1ccccc1O` [Compound 1g], in data set [1], the “Amoebicidal Activity Inhibition % ± SEM” value is 42.20% ± 3.29%.
`CC(C)(C)OC(=O)N1CCN(CCNc2nccc(-c3c(-c4ccc(F)cc4)nc4sccn34)n2)S1(=O)=O` [Compound 1l]: in data set [1], the “Amoebicidal Activity Inhibition % ± SEM” value is 47.41% ± 1.67% and 59.9 µM corresponded to half-maximal inhibition (IC50). Also, the “inhibition of amoebae binding” value in data set [2] was found to be 42%.
Take `COc1cccc(-c2nc3sccn3c2-c2ccnc(NCCNC(=O)c3ccc(N4CCOCC4)c(C(F)(F)F)c3)n2)c1` [Compound 1s]: in data set [1], the “Amoebicidal Activity Inhibition % ± SEM” value was 39.10% ± 2.31%.
Take `COc1cccc(-c2nc3sccn3c2-c2ccnc(NCCNC(=O)c3cccc(C(F)(F)F)c3)n2)c1` [Compound 1q]: in data set [1], the “Amoebicidal Activity Inhibition % ± SEM” value is 52.41% ± 5.31% and 47.7 µM corresponded to half-maximal inhibition (IC50). In the data set on human cell lines, it took 584 µM to reach half-maximal cytotoxicity (CC50) and the EC90 was 30.6 µM. The “cytotoxicity against HeLa cells” value in the data set on HeLa cells is 38%.
As to `COc1cccc(-c2nc3sccn3c2-c2ccnc(NCCNC(=O)c3ccccc3O)n2)c1` [Compound 1p], the “Amoebicidal Activity Inhibition % ± SEM” value in data set [1] was 36.42% ± 5.43%.
With `O=C(NCCNc1nccc(-c2c(-c3cccc(O)c3)nc3sccn23)n1)c1cc(C(F)(F)F)cc(C(F)(F)F)c1` [Compound 1za], in data set [1], the “Amoebicidal Activity Inhibition % ± SEM” value was 15.71% ± 6.61% and the “amoebicidal effects / antiamoebic activity against A. castellanii” value is recorded as “did not show promising antiamoebic activity”.
With `O=C(NCCNc1nccc(-c2c(-c3ccc(F)cc3)nc3sccn23)n1)Nc1cccc(C(F)(F)F)c1` [Compound 1b], the “Amoebicidal Activity Inhibition % ± SEM” value in data set [1] is 12.86% ± 5.93%.
The same measure, in the same setting: the value for `O=C(NCCNc1nccc(-c2c(-c3ccc(F)cc3)nc3sccn23)n1)Nc1cc(C(F)(F)F)cc(C(F)(F)F)c1` [Compound 1c] was 17.28% ± 1.88%.
Regarding `O=C(NCCNc1nccc(-c2c(-c3cccc(O)c3)nc3sccn23)n1)c1ccccc1` [Compound 1x], in data set [1], the “Amoebicidal Activity Inhibition % ± SEM” value is 48.02% ± 3.69% and the half-inhibitory concentration (IC50) turned out to be 54 µM. Also, the EC90 in the data set on human cell lines was 102 µM.
Take `Cc1ccc(C(=O)NCCNc2nccc(-c3c(-c4ccc(F)cc4)nc4sccn34)n2)cc1` [Compound 1d]: the “Amoebicidal Activity Inhibition % ± SEM” value in data set [1] is on record as 39.50% ± 1.53%.
With `O=C(NCCNc1nccc(-c2c(-c3cccc(O)c3)nc3sccn23)n1)Nc1cccc(C(F)(F)F)c1` [Compound 1v], in data set [1], the “Amoebicidal Activity Inhibition % ± SEM” value was 44.86% ± 2.98% and the concentration for half-maximal inhibition (IC50) is 60 µM. For the same compound, in the data set on human cell lines, the CC50 was determined as 222 µM and the EC90 worked out at 5.36 µM.
Consider `O=C(NCCNc1nccc(-c2c(-c3cccc(O)c3)nc3sccn23)n1)c1cccc(C(F)(F)F)c1` [Compound 1z], for which, in data set [1], the “Amoebicidal Activity Inhibition % ± SEM” value is 52.53% ± 1.67% and half-maximal inhibition (IC50) required 44.8 µM. In addition, in the data set with human cell lines, the half-maximal cytotoxic concentration (CC50) is 412 µM and the EC90 stood at 80.9 µM. Further, the “inhibition of amoebae binding” value in data set [2] was 42%. Besides, in data set [3], the “encystation blocked (trophozoites prevented from converting into cysts)” value is 60%.

As a reminder, the IC50 is the midpoint of a concentration-inhibition curve. High values mean weaker potency in that assay, low ones greater potency in that assay. For orientation: CC50 means the concentration that lowers cell viability or growth by half. The low end stands for harm at low concentration, the high end for better tolerance by the cells.

Values taken from paper PMC9494960, “Antiamoebic Activity of Imidazothiazole Derivatives against Opportunistic Pathogen Acanthamoeba castellanii” (Antibiotics, 2022).
